Experimental findings from PubChem BioAssay (NCI) are described below.

Some test systems named below: HOP-62 NSCLC; SF-295 CNS; HCT-116 colon; NCI-H522 lung; NCI-H23 lung; RXF 393 renal; CCRF-CEM leukemia; CAKI-1 renal; SK-OV-3 ovarian; COLO 205 colon; UO-31 renal; HS 578T breast; A498 renal; SW-620 colon; EKVX NSCLC; M14 melanoma; K-562 leukemia; IGROV1 ovarian.
Assay in all cases: NCI tumour cell line growth inhibition, 48 h

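All cell lines were grown in 96-well plates and treated with compound for 48 hours. TGI is the concentration that stops growth completely.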

With `CC1=C[C@H]([C@H]2C=C(C)C(C(N)=O)=CN2Cc2c(Cl)cccc2Cl)N(Cc2c(Cl)cccc2Cl)C=C1C(N)=O`, the TGI with HOP-62 NSCLC, in the assay on SF-295 CNS, in the assay on HCT-116 colon, in the assay with NCI-H522 lung, in the assay on NCI-H23 lung and in the assay on RXF 393 renal was greater than 75 µM throughout. Further, the TGI in the assay with CCRF-CEM leukemia, in the assay with CAKI-1 renal, in the assay on SK-OV-3 ovarian, in the assay with COLO 205 colon, in the assay with UO-31 renal and with HS 578T breast was greater than 75 µM throughout. The TGI with A498 renal, in the assay on SW-620 colon, with EKVX NSCLC, in the assay with M14 melanoma and in the assay with K-562 leukemia was greater than 75 µM throughout.
Regarding `COc1ccc2nc3cc([N+](=O)[O-])ccc3c(Nc3ccc(S(=O)(=O)Nc4ncccn4)cc3)c2c1`, the TGI was greater than 100 µM in the assay on HOP-62 NSCLC; greater than 100 µM in the assay with SF-295 CNS; greater than 100 µM with HCT-116 colon; greater than 100 µM with NCI-H522 lung; greater than 23.2 µM in the assay with NCI-H23 lung; greater than 100 µM in the assay on RXF 393 renal. Moreover, the TGI was greater than 100 µM in the assay on CCRF-CEM leukemia; greater than 100 µM in the assay with CAKI-1 renal; greater than 100 µM in the assay with SK-OV-3 ovarian; greater than 100 µM in the assay on COLO 205 colon; greater than 100 µM in the assay with UO-31 renal; 92.4 µM in the assay on HS 578T breast. The TGI in the assay with IGROV1 ovarian was greater than 100 µM; in the assay on A498 renal, greater than 81.3 µM; with SW-620 colon, greater than 100 µM; in the assay on EKVX NSCLC, greater than 100 µM; with M14 melanoma it was greater than 100 µM; with K-562 leukemia it was greater than 88.2 µM.
In the case of `CCCCc1nc(C)oc1C(C)C`, the TGI with HOP-62 NSCLC, in the assay with SF-295 CNS, with HCT-116 colon, in the assay with NCI-H522 lung, in the assay with NCI-H23 lung and in the assay with RXF 393 renal was greater than 100 µM each time. Further, the TGI in the assay with CCRF-CEM leukemia, in the assay on CAKI-1 renal, in the assay with SK-OV-3 ovarian, in the assay with COLO 205 colon, in the assay with UO-31 renal and with HS 578T breast was greater than 100 µM each time. The TGI in the assay with IGROV1 ovarian, in the assay with A498 renal, in the assay with SW-620 colon, with EKVX NSCLC, in the assay with M14 melanoma and in the assay with K-562 leukemia was greater than 100 µM in each case.
Turning to `COc1ccc(NC(=O)C(C#N)=C(SC)SC)cc1`, the TGI in the assay on HOP-62 NSCLC, in the assay with SF-295 CNS, in the assay with HCT-116 colon, in the assay with NCI-H522 lung, in the assay with NCI-H23 lung and in the assay with RXF 393 renal was greater than 100 µM throughout. Besides, the TGI in the assay with CCRF-CEM leukemia, in the assay with CAKI-1 renal, with SK-OV-3 ovarian, in the assay with COLO 205 colon, with UO-31 renal and with HS 578T breast was greater than 100 µM throughout. The TGI in the assay on IGROV1 ovarian, in the assay with A498 renal, with SW-620 colon, in the assay on EKVX NSCLC, with M14 melanoma and with K-562 leukemia was greater than 100 µM each time.
Turning to `C=CCc1cccc2cc(C(=O)Nc3ccc(C)cc3)c(=N)oc12`, the TGI in the assay on HOP-62 NSCLC, in the assay with HCT-116 colon, in the assay on NCI-H522 lung, with NCI-H23 lung, with RXF 393 renal and in the assay with CCRF-CEM leukemia was greater than 100 µM each time. Also, the TGI in the assay on CAKI-1 renal, in the assay with SK-OV-3 ovarian, with COLO 205 colon, in the assay with HS 578T breast, in the assay on IGROV1 ovarian and in the assay on A498 renal was greater than 100 µM throughout. Also, the TGI in the assay on SW-620 colon, with EKVX NSCLC, in the assay on M14 melanoma and in the assay with K-562 leukemia was greater than 100 µM each time.
`Nc1ncnc2c1ncn2[C@@H]1O[C@H](COP(=O)(O)OP(=O)(O)OC[C@H]2O[C@@H](OCCCO)[C@H](O)[C@@H]2O)[C@@H](O)[C@H]1O`: the TGI with HOP-62 NSCLC, in the assay on SF-295 CNS, with HCT-116 colon, in the assay with NCI-H522 lung, in the assay on NCI-H23 lung and in the assay on RXF 393 renal was greater than 100 µM throughout. In addition, the TGI in the assay with CCRF-CEM leukemia, with CAKI-1 renal, in the assay with SK-OV-3 ovarian, with COLO 205 colon, in the assay on UO-31 renal and in the assay on HS 578T breast was greater than 100 µM throughout. Besides, the TGI in the assay on IGROV1 ovarian, in the assay on A498 renal, with SW-620 colon, with EKVX NSCLC, in the assay on M14 melanoma and in the assay on K-562 leukemia was greater than 100 µM each time.
